Patent US9549553B2, “Active compound combinations having insecticidal properties” (BAYER CROPSCIENCE AKTIENGESELLSCHAFT, priority 2013, dated 2017)

Experiments:
Assay type in all cases: in vivo
[1] = test system: fall armyworm larvae (Spodoptera frugiperda); assay: Spodoptera frugiperda - spray test (maize leaf sections); details: mortality
Experimental: (§1) To produce a suitable preparation of the active compound, 1 part by weight of active compound is mixed with the stated amount of solvent and emulsifier, and the concentrate is diluted with emulsifier-containing water to the desired concentration. To produce a suitable preparation of a spore suspension the spores are diluted with emulsifier-containing water to the desired concentration.
Maize (Zea mais) leaf sections are sprayed with a preparation of the active ingredient of the desired concentration. Once dry, the leaf sections are infested with fall armyworm larvae (Spodoptera frugiperda).
After the specified period of time, mortality in % is determined. 100% means all caterpillars have been killed and 0% means none of the caterpillars have been killed. The mortality values determined thus are recalculated using the Colby-formula (see sheet 1).

[2] = test system: green peach aphid (Myzus persicae); assay: Myzus persicae - spray test, Example C-1 (Chinese cabbage leaf-disks); details: mortality
Experimental: (§2) To produce a suitable preparation of active compound, 1 part by weight of active compound is mixed with the stated amount of solvent and emulsifier, and the concentrate is diluted with emulsifier-containing water to the desired concentration.
Chinese cabbage (Brassica pekinensis) leaf-disks infected with all instars of the green peach aphid (Myzus persicae) are sprayed with a preparation of the active ingredient of the desired concentration.
After the specified period of time, mortality in % is determined 100% means all aphids have been killed; 0% means none of the aphids have been killed. The mortality values determined thus are recalculated using the Colby-formula (see sheet 1).

[3] = test system: mustard beetle larvae (Phaedon cochleariae); assay: Phaedon cochleariae - spray test, Example B-1 (Chinese cabbage leaf-disks); details: mortality
Experimental: as §1, with “of” for “of the”
Chinese cabbage (Brassica pekinensis) leaf-disks are sprayed with a preparation of the active ingredient of the desired concentration. Once dry, the leaf disks are infested with mustard beetle larvae (Phaedon cochleariae).
After the specified period of time, mortality in % is determined. 100% means all beetle larvae have been killed and 0% means none of the beetle larvae have been killed. The mortality values determined thus are recalculated using the Colby-formula (see sheet 1).

[4] = test system: larvae of the diamondback moth (Plutella xylostella); assay: Plutella xylostella - spray test (cabbage leaves); details: mortality
Experimental: as §2, with “concentration Ammonium salt and/or penetration enhancer in a dosage of 1000 ppm are added to the desired concentration if necessary.” for “concentration.”
Cabbage leaves (Brassica oleracea) are treated by being sprayed with the preparation of the active compound of the desired concentration and are infested with larvae of the diamondback moth (Plutella xylostella).
After the specified period of time, the mortality in % is determined. 100% means all the caterpillars have been killed; 0% means none of the caterpillars have been killed. The mortality values determined thus are recalculated using the Colby-formula (see sheet 1).

[5] = test system: mustard beetle larvae (Phaedon cochleariae); assay: Phaedon cochleariae - spray test, Example B-2 (cabbage leaves); details: mortality
Experimental: (§3) Solvent: 7 parts by weight of dimethylformamide
Emulsifier: alkylaryl polyglycol ether
(§4) To produce a suitable preparation of active compound, 1 part by weight of active compound is mixed with the stated amount of solvent and is diluted with water, containing an emulgator concentration of 1000 ppm, to the desired concentration. Further test concentrations are prepared by dilution with emulsifier containing water Ammonium salt and/or penetration enhancer in a dosage of 1000 ppm are added to the desired concentration if necessary.
Cabbage leaves (Brassica oleracea) are treated by being sprayed with the preparation of the active compound of the desired concentration and are infested with mustard beetle larvae (Phaedon cochleariae).
After the specified period of time mortality in % is determined. 100% means all the beetle larvae have been killed and 0% means none of the beetle larvae have been killed. The mortality values determined thus are recalculated using the Colby-formula (see sheet 1).

[6] = test system: two spotted spidermite (Tetranychus urticae); assay: Tetranychus urticae - spray test, OP-resistant (French beans); details: mortality, 1 g ai/ha
Experimental: as §1, with “of” for “of the”
French beans (Phaseolus vulgaris) which are heavily infested with all stages of the two spotted spidermite (Tetranychus urticae), are sprayed with a preparation of the active ingredient of the desired concentration.
After the specified period of time, mortality in % is determined. 100% means all spider mites have been killed and 0% means none of the spider mites have been killed. The mortality values determined thus are recalculated using the Colby-formula (see sheet 1).

[7] = test system: green peach aphid (Myzus persicae); assay: Myzus persicae - spray test, Example C-2 (cabbage leaves); details: mortality, 0.5 ppm
Experimental: as §3
Emulsifier: alkylaryl polyglycolether
as §4
Cabbage leaves (Brassica oleracea) which are heavily infested by the green peach aphid (Myzus persicae) are treated by being sprayed with the preparation of the active compound of the desired concentration.
After the specified period of time, mortality in % is determined 100% means all the aphids have been killed; 0% means none of the aphids have been killed. The mortality values determined thus are recalculated using the Colby-formula (see sheet 1).

For `CC1(C)[C@H](C(=O)O[C@H](C#N)c2cccc(Oc3ccccc3)c2)[C@@H]1C=C(Br)Br` [Deltamethrin], the “Efficacy in % after 6d” value ([1]; 0.25 g ai/ha) was 0% and the “Efficacy in % after 6d” value ([2]; 0.15 g ai/ha) was 0%.

For `Cc1cc(C(F)(C(F)(F)F)C(F)(F)F)ccc1NC(=O)c1cccc(Cl)c1C(=O)NC(C)(C)C#N` [(I-5)], the “Efficacy in % after 6d” value ([3]; 2.5 g ai/ha) was 0%, the “Efficacy in % after 6d” value ([3]; 12 g ai/ha) was 0% and the “Efficacy in % after 6d” value ([1]; 0.8 g ai/ha) was 33%. For the same compound, the “Efficacy in % after 6d” value ([2]; 1.25 g ai/ha) was 0%, the “Efficacy in % after 6d” value ([2]; 1.5 g ai/ha) was 0% and the “Efficacy in % after 6d” value ([2]; 15 g ai/ha) was 0%. The “Efficacy in % after 3d” value ([4]; 0.25 ppm) was 0%, the “Efficacy in % after 3d” value ([5]; 1.2 ppm) was 0% and the “Efficacy in % after 3d” value ([5]; 4.8 ppm) was 50%.

For `CC1(C)[C@H](C(=O)O[C@H](C#N)c2cccc(Oc3ccccc3)c2)[C@@H]1/C=C(\Cl)C(F)(F)F` (racemic) [Lambda-Cyhalothrin, lambda-Cyhalothrin], the “Efficacy in % after 6d” value ([3]; 0.25 g ai/ha) was 0%, the “Efficacy in % after 6d” value ([2]; 0.125 g ai/ha) was 0% and the “Efficacy in % after 3d” value ([4]; 1 ppm) was 0%. For the same compound, the “Efficacy in % after 6d” value [6] was 0%.

For `CC1(C)C(C=C(Cl)Cl)C1C(=O)OC(C#N)c1ccc(F)c(Oc2ccccc2)c1` (stereo not drawn) [Beta-Cyfluthrin (II-11), beta-Cyfluthrin], the “Efficacy in % after 6d” value ([1]; 0.032 g ai/ha) was 0%, the “Efficacy in % after 6d” value [7] was 50% and the “Efficacy in % after 3d” value ([5]; 1.2 ppm) was 0%.
